Experimental data reported in patent publication US5204311A, “Ethanediimidic acid bis[(arylalkylidene)hydrazide] color-formers” (Minnesota Mining and Manufacturing Company, priority 1991, dated 1993).

Columns and labels:
[1] = Color (Hunter coordinates) of Ni complex, swabbed on Ni-coated receptor (CF) sheet; assay type: physicochemical; design: key to Hunter coordinate a / Hunter Coordinates a: Hunter a: +a red, -a green; key to Hunter coordinate b / Hunter Coordinates b: Hunter b: +b yellow, -b blue
Experimental: In general, the colors of the complexes, as listed in Table 2 and Experiments 4, 6, and 7 below, were determined by preparing a 1% solution of the color-former or mixture of color-formers in an appropriate solvent. Unless otherwise indicated, the solvent was composed of a mixture of tributyl phosphate (26.5%), diethyl phthalate (17.6%), and cyclohexane (55.9%). The images were formed by applying two stripes of the solution to a substrate coated with a Ni^2+ coated receptor sheet using a cotton tipped applicator swab. Rapid and complete development of the image was achieved by passing the sheet through a hot shoe adjusted to 102° C., making a revolution every 10 seconds. The visually observed colors were measured and recorded.
One method of color measurement is to determine the color's position in color space. One color space system is the Hunter System; see F. W. Billmeyer, Jr., and M. Saltzman, Principles of Color Technology; John Wiley & Sons; New York, N.Y.; Ch. 2 & 3, 1981. In this system three mutually perpendicular axes (L, a, and b) are needed to define a color. "L" (+z axis) represents the lightness or darkness of the image; "a" (x axis) represents the amount of red or green (+a is red, -a is green); and "b" (y axis) represents the amount of yellow or blue (+b is yellow, -b is blue). By measuring a material's L, a, and b values, the color of one sample can be compared with that of other samples. Another value used in the Hunter System is Chroma (C). Chroma is defined by the equation [C=(a^2 +b^2)^1/2 ] and represents the distance of the image coordinates from the origin. The greater the Chroma, the more intense the image. Chroma is used to compare images cf the same hue. Because the color of a sample is also dependent upon the color temperature of the illuminating source, the angle at which the sample is illuminated, the angle at which the illumination is reflected, and the angle of the retina illuminated, these all need to be specified. Many instruments have been developed to record these values. One such instrument is the HunterLab LabScan II. This instrument is capable of automatically determining the L, a, and b values for a given sample, and was used for the following examples.
The L, a, and b color coordinates of the more uniform stripe were measured for 45°/0° reflectance on a HunterLab LabScan II, secondary observer, using illuminant C. The observed (image) color and the Hunter coordinates for Ni^2+ complexes of the yellow color-formers of this invention are given in Table 2.
A 1% solution of the condensation product in the encapsulation fill mix was swabbed onto a carbonless paper CF sheet (sold by the 3M Co. St. Paul, Minn.) with a cotton swab. The reflectance spectra had Hunter coordinates of: […]

[2] = Imaging of CB sheet with encapsulated color-former on Ni-coated CF sheet; assay type: physicochemical
Experimental: A precondensate solution was prepared comprising 192 g of formalin, 0.63 g of potassium tetraborate, 72 g of urea, and 328 g of soft water. The formalin was 37% formaldehyde and was added to a 1-liter flask equipped with a stirrer and heating mantle. The potassium tetraborate and urea were then added, and the mixture was heated to 70° C. The reaction was maintained at that temperature for 2.5-3.0 hr. The reaction mixture was then diluted with the water and allowed to cool. The precondensate solution, with about 24% solids, was then ready for use in the encapsulation process.
The precondensate and fill (ethanediimidic acid bis[hydrazide] and carrier or fill solvents) were combined to make capsules according to the following procedure. Sodium chloride (29.54 g) was added to the stirred precondensate solution and the temperature of the solution was adjusted to 20° C. The fill material (215 g) was added and full agitation was begun. After 5 minutes of stirring, 10% hydrochloric acid solution was added over 5 minutes in an amount such that the final pH of the reaction mixture was about 2.8. The reaction mixture was stirred for another 12 minutes. More of the 10% hydrochloric acid solution was added over a period of 12 minutes, in an amount such that the final pH of the solution was about […]. The reaction mixture was stirred at 20° C. for 1 hr, and then at 60° C. for 1-3 hr. The acidic solution was allowed to cool and adjusted to a pH of 7 by addition of concentrated ammonium hydroxide solution (28%). The capsule slurry could then be stored for later use.
The capsule slurry (10 g) was added to 65 g of a 1.5% aqueous sodium alginate solution. The mixture was applied to a coated paper using a bar coater with a 3 mil gap. The coating was allowed to dry at room temperature.
A 2% solution of the compound 1 in the capsule fill solvent of diethyl phthalate, tributyl phosphate, and cyclohexane was encapsulated by the procedure described in Experiment 5 above. A coating mixture of 10.0 g of capsule slurry, 2.5 g of Dow-620 butadiene-styrene latex, and 62.5 g of 1.5% sodium alginate slurry was coated onto paper by the draw down procedure described above.
A 7.5% solution comprising 5.45% N-(5-octanoylamido-2-metylpentyl)dithiooxamide/N-(5-octanoylamido-4-methylpentyl)dithiooxamide (G') mixture and 2.05% N,N'-di(5-octanoylamido-2-methylpentyl)dithiooxamide/N-(5-octanoylamido-2- methylpentyl)-N'-(5-octanoylamido-4-methylpentyl)dithiooxamide/N,N'-(5-octanoylamido-2-methylpentyl)dithiooxamide (G) mixture in the fill solvent mixture of diethyl phthalate, tributyl phosphate, and cyclohexanone was encapsulated by the procedure described above. A coating mixture of 10.0 g of capsule slurry, 2.5 g of Dow 620 styrene-butadiene latex, and 62.5 g of 1.5% sodium alginate solution was coated onto paper by the draw down procedure described in Experiment 5 above.
A blend was prepared of 10 g of the capsule slurry containing compound 1, with 10 g of capsule slurry containing 5.45% N-(5-octanoylamido-2-methylpentyl)dithiooxamide/N-(5-octanoylamido-4-methylpentyl)dithiooxamide (G') mixture and 2.05% N,N'-di(5-octanoylamido-2-methylpentyl)dithiooxamide/N-(5-octanoylamido-2- methylpentyl)-N'-(5-octanoylamido-4-methylpentyl)dithiooxamide/N,N'-di(5-octanoylamido-4-methylpentyl)dithiooxamide (G) mixture. […]

[3] = 1% solution in encapsulation fill mix swabbed onto 3M CF sheet (Experiments 2, 3)
[4] = Ni(II) complex, swab concn. 1%, 45°/0° reflectance, illuminant C (Table 2)
[5] = encapsulated, 2% compound 1 fill, 7.5% G'/G fill, or blend of both capsule slurries (Experiment 6)

- Hunter coordinate L [1, 3]: 79.8
- Hunter coordinate a [1, 3]: -2.1
- Hunter coordinate b [1, 3]: 39.3
- color observed on the CF sheet ([1]; 1% solution swabbed (Experiments 2, 3)): yellow
- Chroma ([1]; C=(a^2 +b^2)^1/2, Ni(II) complex, swab concn. 1% (Table 2)): 39.3
- Image Color ([1]; Ni(II) complex, swab concn. 1% (Table 2)): Yellow
- Hunter Coordinates L [1, 4]: 79.8
- Hunter Coordinates a [1, 4]: -2.1
- Hunter Coordinates b [1, 4]: 39.3
- Image Color ([2]; encapsulated (Experiment 6)): yellow
- Hunter coordinate L [2, 5]: 84.0
- Hunter coordinate a [2, 5]: -2.04
- Hunter coordinate b [2, 5]: 31.0
Structure (SMILES): CC(C)(C)c1cc(C=NN=C(N)C(N)=NN=Cc2cc(C(C)(C)C)cc(C(C)(C)C)c2O)c(O)c(C(C)(C)C)c1 [Compound 1, ethanediimidic acid bis[(3,5-di-t-butylsalicylidene)hydrazide]]
